Usually EC50 stands for the concentration needed to bring the measured effect to its halfway point. Read a low EC50 as higher potency in that assay.

Where two headings read alike, the source gives them in different places. Marks after values point to notes of the source that are not given here.

One series concerns A375 cells. Nature of the series: Cytotoxic lysis by adenylate kinase (AK) release, 48 hr. The series is classed as cell-based, human. The protocol:
Cell supernatants were analyzed for cytotoxic lysis by measuring adenylate kinase (AK) release. […] The lack of AK release was confirmed for all cell lines tested.
100% viability (ATP assay) was determined in vehicle only control wells.

Series [1] relates to select human cancer cells. Nature of the series: Growth inhibition in proliferation assays, summary over cell lines. The class given is cell-based.
The conditions of series [2]: human, in vivo.
Series [3] deals with MDA-MB231 breast adenocarcinoma cells. The series is described as follows: Anchorage-dependent growth inhibition (ATP content, 48 hr). The series is classed as cell-based, human.
Series [4] can be described thus: Pharmacokinetics in healthy volunteers following multiple doses. As to conditions: 20 mg.
The next series deals with HT29 colon cancer tumors. The series is described as follows: Anti-tumor xenograft activity, TGI (Example 94). The series is classed as in vivo, nu/nu mice. As to conditions: 25 mg/kg QD oral, 14 days. The procedure: (§1) Human tumors were implanted in nu/nu mice. Compound A was administered orally for 14 days once tumors were approximately 100 mm^3 in size. Tumor growth inhibition (TGI) was determined after 14 days of treatment as the reduction in the size of tumors in treated groups versus vehicle controls. The time to endpoint (TTE) was calculated as the time for the tumor to reach the specified endpoint volume or the last day of the study, whichever came first. Treatment outcome was determined from percent tumor growth delay (% TGD), defined as the percent increase in median TTE of treated versus vehicle-treated control mice. Animals were also monitored for regression responses. Levels of pERK in tumors and brain were determined by Western blots and correlated with plasma levels of Compound A for the pharmacodynamic/pharmacokinetic study. A number of tumor models were evaluated with different doses and dosing regimens. […] The effect of different dosing regimens was evaluated in A375 xenografts.
Female nu/nu mice were implanted with A375 Melanoma, Colo205 Colon Tumor, A431 Epidermoid Tumor or HT-29 Colon Tumor cells, which were allowed to grow to 100-200 mm^3. […]
Tumor Growth Inhibition for the groups treated with 25 mg/kg Compound A were calculated for the indicated tumor xenografts. Tumor Growth Inhibition was measured at the end of once daily dosing for 14 days and calculated according to: […]

Another series deals with Colo205 tumor cells. The series is described as follows: ED50 in Colo205 xenografts (Example 94D). The class given is in vivo, nu/nu mice. The source says:
Male nu/nu mice were implanted with Colo205 tumor cells. After 10 days animals were randomized by tumor size (range 126-256 mm^3) and treated with paclitaxel (IV, QODx5), vehicle or Compound A (PO, QDx14).

A further series has as its system pERK in Colo205 tumors. The series is described as follows: MEK inhibition (pERK, Western blot) against plasma concentration, tumor. The class given is in vivo, nu/nu mice. The protocol: as §1
Female nu/nu mice implanted with Colo205 tumor cells were given a single dose of vehicle or Compound A at 2.5, 5, 10, or 25 mg/kg. Compound levels were determined in plasma samples and pERK levels were determined in tumor and brain samples collected at 2, 6, 12, and 24 hr post-dose. […]
(In general: In western blotting, separated proteins are transferred to a membrane and probed.)

The subject of series [5] is carrageenan-induced hind paw edema. The series is described as follows: Carrageenan-induced paw edema (CPE). The series is classed as in vivo, Sprague-Dawley rats. As to conditions: 6, 20 & 60 mg/kg orally 2 hr before carrageenan; all dose groups. The procedure:
Compound A (6, 20 & 60 mg/kg) or indomethacin (3 mg/kg) were administered orally 2 hr prior to injection of 1% suspension of carrageenan into the right hind foot pad of male Sprague-Dawley rats (N-6 per treatment group). The hind paw edema was measured 3 hr later by assessing paw volume by plethysmography. Reduction of hind paw edema by 30% or greater indicates significant acute anti-inflammatory activity. Indomethacin (Indo) was used as a positive control drug.

A further series concerns A431 epidermoid cells. The series is described as follows: Anchorage-independent growth inhibition (MTS, 7 days, non-binding plates). The class given is cell-based. As to conditions: Homo sapiens, A-431, 168 h, BRAF Normal, read-out: Anchorage-Independent GI50 (nM ± sd).

Turning to `COc1cc(F)c(F)c(Nc2ccc(I)cc2F)c1NS(=O)(=O)C1(C[C@H](O)CO)CC1`, the “AK, Cell killing, % Control” value in the series with A375 cells (1 uM) stood at 4%. In addition, the “cytotoxic cell lysis (AK release)” value in the series on A375 cells (100% cell killing with 20 μM tamoxifen) is “lack of cytotoxic cell lysis”. The GI50 was 79 nM in series [1] (mean over A375, Colo205, HT29 and A431, 48 hr, ATP content, read-out: growth inhibition, mean potency (GI50)); 70 to 89 nM in [1] (select human cancer cells, range, read-out: GI50 values, anchorage dependent proliferation assays); 51 nM in series [1] (select human cancer cells, read-out: GI50, anchorage dependent proliferation assays); 22 nM in series [1] (select human cancer cells, read-out: GI50, anchorage independent proliferation assays); over 1000 nM in [3] (MDA (MDA-MB231), 48 hr, ATP content). In [2], this molecule came in with a half-lives of 13 to 15 h. Besides, the “growth arrest in 2-dimensional anchorage dependent assays” value in [3] (MDA-MB231 cells) is on record as “do not show”. Also, the “Rac AUCτ (accumulation index)” value in [4] amounted to 1.24.
In the case of `COc1cc(F)c(F)c(Nc2ccc(I)cc2F)c1NS(=O)(=O)C1(C[C@H](O)CO)CC1` [Compound A], the “% TGI” value in the series on HT29 colon cancer tumors was 56%; in the series on Colo205 tumor cells (Compound A 2.5 mg/kg PO QDx14), 47* %; in the series on Colo205 tumor cells (Compound A 5 mg/kg PO QDx14), 48* %; with Colo205 tumor cells (Compound A 10 mg/kg PO QDx14) it was 55* %; in the series on Colo205 tumor cells (Compound A 25 mg/kg PO QDx14), 70* %. The “Day 15 Tumor Volume” value in the series on Colo205 tumor cells (Compound A 2.5 mg/kg PO QDx14) is listed as 1187 ± 127 mm^3; with Colo205 tumor cells (Compound A 5 mg/kg PO QDx14), 1175 ± 104 mm^3; with Colo205 tumor cells (Compound A 10 mg/kg PO QDx14), 1045 ± 160 mm^3; in the series on Colo205 tumor cells (Compound A 25 mg/kg PO QDx14), 762 ± 81 mm^3. In addition, the “pERK formation in tumors” value in the series on pERK in Colo205 tumors (Colo205 xenografts, pharmacodynamic/pharmacokinetic study) is recorded as “inhibition of pERK formation”. Further, in the series with pERK in Colo205 tumors (Mus musculus, COLO 205, plasma concentration, Colo205-bearing nu/nu mice, single dose 2.5-25 mg/kg, non-linear regression), the EC50 turned out to be 73 nM. Further, the “hind paw edema (paw volume)” value in series [5] is given as “significant anti-inflammatory activity”. For the same molecule, in the series on A431 epidermoid cells, the GI50 stood at 65 ± 19 nM.

Values taken from US8648116B2, “Derivatives of N-(arylamino) sulfonamides including polymorphs as inhibitors of MEK as well as compositions, methods of use and methods for preparing the same” (Ardea Biosciences, Inc., priority 2005, dated 2014).
